For five compounds, IC50 and inhibition results are on record in patent US20250368649A1, “TETRAHYDROPYRIDOPYRIMIDINE PAN-KRAS INHIBITORS” (Mirati Therapeutics, Inc., priority 2022, published 2025).

One test has as its system ASPC1 cells. Nature of the test: Inhibition of KRas-mediated phosphorylation of ERK (Cisbio HTRF pERK), ASPC1 cells. As to conditions: Homo sapiens, AsPC-1 cells; for IC50: ASPC1, 3 h, 3 hr compound incubation, Cisbio pERK HTRF; for inhibition at 0.1 µM: ASPC1, single point at 100 nM, 3 hrs compound incubation. The test is classed as cell-based. (TR-FRET usually uses a lanthanide donor and a delayed reading to cut background.)

In the next test the target is KRas G13D (Homo sapiens, UniProt P01116, G13D). The test is classed as binding. Conditions: single point, 10 nM compound, read-out: Binding to KRas (% inhibition at 10 nM) G13D.
Chain of KRas G13D (P01116 1-169 isoform P01116-2 G13D): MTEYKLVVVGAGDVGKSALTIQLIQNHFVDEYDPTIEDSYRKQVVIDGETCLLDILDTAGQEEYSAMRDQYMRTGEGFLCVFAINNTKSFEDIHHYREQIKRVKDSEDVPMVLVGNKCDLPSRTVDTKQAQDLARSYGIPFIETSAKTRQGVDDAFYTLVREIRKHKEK
In another test the target is KRas Q61H (Homo sapiens, UniProt P01116, Q61H). As to the kind of experiment: KRas binding assay (TR-FRET displacement), KRas Q61H. Conditions: single point, 10 nM compound.
Chain of KRas Q61H (P01116 1-169 isoform P01116-2 Q61H): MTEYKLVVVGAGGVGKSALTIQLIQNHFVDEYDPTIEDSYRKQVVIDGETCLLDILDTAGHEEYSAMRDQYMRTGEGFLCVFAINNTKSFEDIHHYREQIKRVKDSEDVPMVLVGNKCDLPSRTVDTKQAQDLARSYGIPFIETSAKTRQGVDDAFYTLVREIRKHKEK
In a further test the target is KRas G12R (Homo sapiens, UniProt P01116, G12R). As to the kind of experiment: biochemical. Conditions: Binding to KRas (IC50 nM) G12R, TR-FRET displacement, KRas G12R.
Chain of KRas G12R (P01116 1-169 isoform P01116-2 G12R): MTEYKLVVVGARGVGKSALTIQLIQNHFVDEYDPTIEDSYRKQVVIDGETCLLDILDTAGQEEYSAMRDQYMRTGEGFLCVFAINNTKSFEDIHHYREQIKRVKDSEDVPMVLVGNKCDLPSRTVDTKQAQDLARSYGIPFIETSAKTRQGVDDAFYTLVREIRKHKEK
The next test has as its system MKN1 cells. Nature of the test: Inhibition of KRas-mediated phosphorylation of ERK (Cisbio HTRF pERK), MKN1 cells. In kind it is cell-based. Conditions: Homo sapiens, MKN-1, 3 hour compound incubation, Cisbio pERK HTRF. The procedure, abridged:
(§1)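 Day 1: 6,000 cells/well plated, RPMI + 10% FBS.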

Another test addresses KRas G12S (Homo sapiens, UniProt P01116, G12S). In kind it is binding. As to conditions: single point, 10 nM compound, read-out: Binding to KRas (% inhibition at 10 nM) G12S.
Another test concerns PSN1 cells. Nature of the test: Inhibition of KRas-mediated phosphorylation of ERK (Cisbio HTRF pERK), PSN1 cells. In kind it is cell-based. As to conditions: Homo sapiens, PSN1, 3 h, 3 hour compound incubation, Cisbio pERK HTRF. The procedure, abridged:
as §1

For a further test, the system named is H727 cells. Nature of the test: Inhibition of KRas-mediated phosphorylation of ERK (Cisbio HTRF pERK), H727 cells. Conditions: Homo sapiens; for IC50: NCI-H727, 3 h, 3 hr compound incubation, Cisbio pERK HTRF; for inhibition at 0.1 µM: NCI-H727, single point at 100 nM, 3 hrs compound incubation. In kind it is cell-based.
Another test has as its target KRas G12C (Homo sapiens, UniProt P01116, G12C). In kind it is binding. As to conditions: single point, 10 nM compound, read-out: Binding to KRas (% inhibition at 10 nM) G12C.
Another test concerns HCT116 cells. Nature of the test: Inhibition of KRas-mediated phosphorylation of ERK (Cisbio HTRF pERK), HCT116 cells. In kind it is cell-based. As to conditions: Homo sapiens; for inhibition at 0.1 µM: HCT-116, single point at 100 nM, 3 hrs compound incubation; for IC50: HCT-116, 3 h, 3 hr compound incubation, Cisbio pERK HTRF.
In another test the test system is H460 cells. As to the kind of experiment: Inhibition of KRas-mediated phosphorylation of ERK (Cisbio HTRF pERK), H460 cells. In kind it is cell-based. As to conditions: Homo sapiens; for inhibition at 0.1 µM: NCI-H460, single point at 100 nM, 3 hrs compound incubation; for IC50: NCI-H460, 3 h, 3 hr compound incubation, Cisbio pERK HTRF.
The next test addresses KRas G12A (Homo sapiens, UniProt P01116, G12A). In kind it is binding. As to conditions: single point, 10 nM compound, read-out: Binding to KRas (% inhibition at 10 nM) G12A.
The test system of another test is A549 cells. As to the kind of experiment: Inhibition of KRas-mediated phosphorylation of ERK (Cisbio HTRF pERK), A549 cells. Conditions: Homo sapiens; for inhibition at 0.1 µM: single point at 100 nM, 3 hrs compound incubation; for IC50: A549, 3 h, 3 hr compound incubation, Cisbio pERK HTRF. The test is classed as cell-based.
For a further test, the system named is H358 cells. Nature of the test: Inhibition of KRas-mediated phosphorylation of ERK (Cisbio HTRF pERK), H358 cells. Conditions: Homo sapiens; for inhibition at 0.1 µM: NCI-H358, single point at 100 nM, 3 hrs compound incubation; for IC50: NCI-H358, 3 h, 3 hr compound incubation, Cisbio pERK HTRF. The test is classed as cell-based.
In another test the target is KRas G12D (Homo sapiens, UniProt P01116, G12D). Nature of the test: biochemical. Conditions: Binding to KRas (IC50 nM) G12D, TR-FRET displacement, KRas G12D.
Chain of KRas G12D (P01116 1-169 isoform P01116-2 G12D): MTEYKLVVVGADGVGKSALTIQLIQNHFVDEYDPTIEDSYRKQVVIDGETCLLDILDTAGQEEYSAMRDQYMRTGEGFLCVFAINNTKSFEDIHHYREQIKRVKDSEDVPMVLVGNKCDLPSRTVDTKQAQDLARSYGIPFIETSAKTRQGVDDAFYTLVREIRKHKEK
Another test has as its target KRas WT (Homo sapiens, UniProt P01116). As to the kind of experiment: KRas binding assay (TR-FRET displacement), KRas WT. As to conditions: single point, 10 nM compound.
The target of a further test is KRas G12V (Homo sapiens, UniProt P01116, G12V). Nature of the test: biochemical. Conditions: Binding to KRas (IC50 nM) G12V, TR-FRET displacement, KRas G12V.
Chain of KRas G12V (P01116 1-169 isoform P01116-2 G12V): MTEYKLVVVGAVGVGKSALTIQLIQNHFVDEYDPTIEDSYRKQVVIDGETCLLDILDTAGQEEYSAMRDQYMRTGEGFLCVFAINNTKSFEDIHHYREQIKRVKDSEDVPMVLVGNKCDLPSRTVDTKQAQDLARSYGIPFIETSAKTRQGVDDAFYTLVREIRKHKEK

Broadly, the IC50 is the point on the concentration scale where inhibition reaches its midpoint. A lower IC50 goes with greater potency in that assay. One may read the inhibition as the drop in the measured response relative to a control, in per cent.

Chain of KRas G12A (P01116 1-169 isoform P01116-2 G12A): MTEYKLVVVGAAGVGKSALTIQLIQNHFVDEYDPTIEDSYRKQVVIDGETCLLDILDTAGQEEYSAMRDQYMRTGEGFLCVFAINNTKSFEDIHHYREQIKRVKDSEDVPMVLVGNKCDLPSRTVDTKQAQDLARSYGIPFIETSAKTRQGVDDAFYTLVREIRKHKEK
Chain of KRas G12S (P01116 1-169 isoform P01116-2 G12S): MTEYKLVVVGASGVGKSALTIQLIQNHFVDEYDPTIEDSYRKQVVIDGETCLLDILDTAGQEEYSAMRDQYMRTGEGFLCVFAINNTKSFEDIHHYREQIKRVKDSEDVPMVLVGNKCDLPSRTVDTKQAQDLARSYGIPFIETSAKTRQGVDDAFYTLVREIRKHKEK
Chain of KRas G12C (P01116 1-169 isoform P01116-2 G12C): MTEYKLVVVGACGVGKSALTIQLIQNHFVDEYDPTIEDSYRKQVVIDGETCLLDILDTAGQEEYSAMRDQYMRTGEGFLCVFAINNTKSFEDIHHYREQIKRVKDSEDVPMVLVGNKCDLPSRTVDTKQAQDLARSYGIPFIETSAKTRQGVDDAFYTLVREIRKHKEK
Chain of KRas WT (P01116 1-169 isoform P01116-2): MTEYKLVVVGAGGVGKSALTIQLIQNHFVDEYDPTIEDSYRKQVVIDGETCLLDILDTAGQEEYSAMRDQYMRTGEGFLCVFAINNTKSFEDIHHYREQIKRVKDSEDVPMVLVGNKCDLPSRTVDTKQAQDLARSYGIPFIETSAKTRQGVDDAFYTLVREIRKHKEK

Consider `CCc1c(F)ccc2cc(O)cc(N3CCc4c(nc(OC[C@@]56CCCN5C[C@H](F)C6)nc4N4CCCn5nc(C(=O)N6CC7CCC(C6)N7)cc5C4)C3)c12` [Example 265, 3,8-diazabicyclo[3.2.1]octan-3-yl(5-(7-(8-ethyl-7-fluoro-3-hydroxynaphthalen-1-yl)-2-(((2R,7aS)-2-fluorohexahydro-1H-pyrrolizin-7a-yl)methoxy)-5,6,7,8-tetrahydropyrido[3,4-d]pyrimidin-4-yl)-5,6,7,8-tetrahydro-4H-pyrazolo[1,5-a][1,4]diazepin-2-yl)methanone], for which the IC50 with ASPC1 cells was 31 nM; at KRas G12R, less than 2 nM; in the test with MKN1 cells it was 23.1 nM; with PSN1 cells, greater than 10000 nM; in the test with H727 cells, 217 nM; at KRas G12D it was less than 2 nM. Besides, on KRas G12V, the IC50 is less than 2 nM. The inhibition at 0.1 µM was 63% in the test on ASPC1 cells; 40% with H727 cells; 16% with HCT116 cells; -4% with H460 cells; 32% in the test on A549 cells; 60% in the test with H358 cells. Also, the inhibition at 0.01 µM came out at 99% on KRas G13D; 97% at KRas Q61H; 99% at KRas G12S; 100% on KRas G12C; 97% at KRas G12A; 98% on KRas WT.
Regarding `CCc1c(F)ccc2cc(O)cc(N3CCc4c(nc(OC[C@@]56CCCN5C[C@H](F)C6)nc4N4CCCn5nc(C(=O)N6C[C@@H]7C[C@H](C6)[C@H](O)C7)cc5C4)C3)c12` [Example 268, (5-(7-(8-ethyl-7-fluoro-3-hydroxynaphthalen-1-yl)-2-(((2R,7aS)-2-fluorohexahydro-1H-pyrrolizin-7a-yl)methoxy)-5,6,7,8-tetrahydropyrido[3,4-d]pyrimidin-4-yl)-5,6,7,8-tetrahydro-4H-pyrazolo[1,5-a][1,4]diazepin-2-yl)((1R,5R,6R)-6-hydroxy-3-azabicyclo[3.2.1]octan-3-yl)methanone], the IC50 with ASPC1 cells was 18 nM; on KRas G12R it was less than 2 nM; with MKN1 cells, 8.9 nM; with PSN1 cells, greater than 10000 nM; with H727 cells, 32 nM; in the test on HCT116 cells, 218 nM. Also, the half-maximal inhibitory concentration (IC50) in the test on H460 cells was 56 nM; in the test on A549 cells, 83 nM; in the test on H358 cells, 7 nM; on KRas G12D, less than 2 nM; on KRas G12V it was less than 2 nM. For the same compound, the inhibition at 0.1 µM in the test with ASPC1 cells was 84%; with H727 cells, 49%; with A549 cells, 67%; in the test with H358 cells, 104%. For the same compound, the inhibition at 0.01 µM on KRas G13D was 99%; at KRas Q61H it was 99%; on KRas G12S, 99%; on KRas G12C it was 99%; at KRas G12A it was 98%; on KRas WT, 98%.
Turning to `CCc1c(F)ccc2cc(O)cc(N3CCc4c(nc(OC[C@@]56CCCN5C[C@H](F)C6)nc4N4CCCn5nc(C(=O)N(C)C)c(COC)c5C4)C3)c12` [Example 269, 5-(7-(8-ethyl-7-fluoro-3-hydroxynaphthalen-1-yl)-2-(((2R,7aS)-2-fluorohexahydro-1H-pyrrolizin-7a-yl)methoxy)-5,6,7,8-tetrahydropyrido[3,4-d]pyrimidin-4-yl)-3-(methoxymethyl)-N,N-dimethyl-5,6,7,8-tetrahydro-4H-pyrazolo[1,5-a][1,4]diazepine-2-carboxamide], the IC50 with ASPC1 cells is 3 nM; on KRas G12R, less than 2 nM; in the test on MKN1 cells it was 1.4 nM; with PSN1 cells it was 9880 nM; in the test with H727 cells, 5 nM; with HCT116 cells it was 25 nM. For the same compound, the IC50 with H460 cells is 8 nM; in the test on A549 cells, 2 nM; with H358 cells it was 1 nM; at KRas G12D it was less than 2 nM; at KRas G12V it was less than 2 nM. Moreover, the inhibition at 0.01 µM at KRas G13D is 99%; at KRas Q61H, 98%; at KRas G12S, 100%; on KRas G12C it was 100%; on KRas G12A, 99%; at KRas WT, 99%. The inhibition at 0.1 µM in the test with H460 cells turned out to be 89%; in the test on A549 cells, 93%; in the test on H358 cells, 100%.
Regarding `CCc1c(F)ccc2cc(O)cc(N3CCc4c(nc(OC[C@@]56CCCN5C[C@H](F)C6)nc4N4CCCn5nc(C(=O)N6C[C@H](C)N[C@@H](C)C6)cc5C4)C3)c12` [Example 282, ((3S,5S)-3,5-dimethylpiperazin-1-yl)(5-(7-(8-ethyl-7-fluoro-3-hydroxynaphthalen-1-yl)-2-(((2R,7aS)-2-fluorohexahydro-1H-pyrrolizin-7a-yl)methoxy)-5,6,7,8-tetrahydropyrido[3,4-d]pyrimidin-4-yl)-5,6,7,8-tetrahydro-4H-pyrazolo[1,5-a][1,4]diazepin-2-yl)methanone], the IC50 in the test on ASPC1 cells was 9 nM; on KRas G12R, less than 2 nM; in the test on MKN1 cells it was 35.1 nM; in the test with PSN1 cells it was greater than 10000 nM; with H727 cells, 128 nM; in the test on HCT116 cells, 172 nM. For the same compound, the IC50 is 93 nM in the test on H460 cells; 53 nM in the test on A549 cells; 16 nM with H358 cells; less than 2 nM on KRas G12D; less than 2 nM on KRas G12V. For the same compound, the inhibition at 0.01 µM on KRas G13D came out at 99%; at KRas Q61H, 99%; at KRas G12S it was 100%; on KRas G12C, 99%; on KRas G12A, 98%; at KRas WT, 98%. The inhibition at 0.1 µM with HCT116 cells was determined as 12%; with H460 cells it was 35%; with A549 cells it was 37%; in the test with H358 cells, 88%.
As for `CCc1c(F)ccc2cc(O)cc(N3CCc4c(nc(OC[C@@]56CCCN5C[C@H](F)C6)nc4N4CCCn5nc(C(=O)N6CC7CC(C6)N7)cc5C4)C3)c12` [Example 283, 3,6-diazabicyclo[3.1.1]heptan-3-yl(5-(7-(8-ethyl-7-fluoro-3-hydroxynaphthalen-1-yl)-2-(((2R,7aS)-2-fluorohexahydro-1H-pyrrolizin-7a-yl)methoxy)-5,6,7,8-tetrahydropyrido[3,4-d]pyrimidin-4-yl)-5 6,7,8-tetrahydro-4Hi-pyrazolo[1,5-a][1,4]diazepin-2-yl)methanone], the IC50 with ASPC1 cells was 22 nM; at KRas G12R it was less than 2 nM; with MKN1 cells it was 155 nM; in the test with PSN1 cells, greater than 10000 nM; in the test with H727 cells, 106 nM; at KRas G12D it was less than 2 nM. The compound further returned an IC50 on KRas G12V of less than 2 nM. Moreover, the inhibition at 0.01 µM at KRas G13D turned out to be 98%; on KRas Q61H, 97%; at KRas G12S, 99%; at KRas G12C, 99%; on KRas G12A, 97%; at KRas WT, 95%. For the same compound, the inhibition at 0.1 µM is -8% in the test on HCT116 cells, 18% in the test with H460 cells, 40% in the test on A549 cells and 48% in the test on H358 cells.
